{"source": "paper PMC3587680", "about": "(European journal of medicinal chemistry, 2012)", "key": {"[1]": {"target": "T1, recombinant human thymidine kinase 1 (hTK1) (Homo sapiens, UniProt P04183)", "T1 sequence (P04183 1-234)": "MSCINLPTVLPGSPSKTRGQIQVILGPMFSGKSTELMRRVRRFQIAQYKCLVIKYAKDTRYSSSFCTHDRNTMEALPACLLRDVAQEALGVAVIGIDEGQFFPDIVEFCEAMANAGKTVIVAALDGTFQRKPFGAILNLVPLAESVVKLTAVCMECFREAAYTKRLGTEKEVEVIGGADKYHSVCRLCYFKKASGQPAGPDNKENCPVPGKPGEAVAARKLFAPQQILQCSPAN", "conditions": "for kcat ± SD: apparent, varying substrate concentrations, 100 μM ATP, three replicates; for rkcat/Km (kcat/Km relative to that of dThd): current recombinant hTK1 preparation (specific activity 441 nmol/min/mg)"}, "[2]": {"experiment": "Thermodynamic solubility in PBS", "assay_type": "physicochemical", "conditions": "PBS pH 7.4, 25 °C"}, "[3]": {"target": "T1, recombinant human thymidine kinase 1 (hTK1)", "conditions": "PTA conditions"}, "intracranial RG2 glioma": {"tested_on": "intracranial RG2 glioma", "conditions": "rats bearing intracranial RG2 glioma, cited from earlier work"}, "L929 TK (+) cells": {"tested_on": "L929 TK (+) cells", "conditions": "cited from earlier work"}, "[4]": {"target": "T1, recombinant human thymidine kinase 1 (hTK1)", "conditions": "different hTK1 enzyme preparation, previous study; cited from earlier work"}}}
{"substance": "3-[1(2)-closo-1,7-Carboranylbutyltetrazol-5-yl]thymidine [11d1/2]", "values": [{"measurement": "kcat ± SD", "setting": "[1]", "value": "0.32 ± 0.02", "unit": "S^-1"}, {"measurement": "rkcat/Km (kcat/Km relative to that of dThd)", "setting": "[1]", "value": 19.7, "unit": "%"}, {"measurement": "Solubility in PBS pH 7.4", "setting": "[2]", "value": "13.3 - 13.8 |g/mL ^*"}]}
{"substance": "3-[1(2)-closo-1,7-Carboranylbutyltetrazol-5-ylmethyl]thymidine [9d1/2]", "values": [{"measurement": "kcat ± SD", "setting": "[1]", "value": "0.47 ± 0.04", "unit": "S^-1"}, {"measurement": "rkcat/Km (kcat/Km relative to that of dThd)", "setting": "[1]", "value": 8.9, "unit": "%"}, {"measurement": "Solubility in PBS pH 7.4", "setting": "[2]", "value": "33.9 ± 1.4 |g/mL"}]}
{"substance": "3-[1(2)-closo-1,7-Carboranylethyltetrazol-5-yl]thymidine [11b1/2]", "values": [{"measurement": "kcat ± SD", "setting": "[1]", "value": "0.35 ± 0.03", "unit": "S^-1"}, {"measurement": "Solubility in PBS pH 7.4", "setting": "[2]", "value": "42.6 ± 1.0 |g/mL"}]}
{"substance": "3-[1(2)-closo-1,7-Carboranylethyltetrazol-5-ylmethyl]thymidine [9b1/2]", "values": [{"measurement": "kcat ± SD", "setting": "[1]", "value": "0.44 ± 0.03", "unit": "S^-1"}, {"measurement": "rkcat/Km (kcat/Km relative to that of dThd)", "setting": "[1]", "value": 14.9, "unit": "%"}, {"measurement": "Solubility in PBS pH 7.4", "setting": "[2]", "value": "133.1 ± 5.2 |g/mL"}]}
{"substance": "3-[1(2)-closo-1,7-Carboranylpropyltetrazol-5-yl]thymidine [11c1/2]", "values": [{"measurement": "kcat ± SD", "setting": "[1]", "value": "0.37 ± 0.06", "unit": "S^-1"}, {"measurement": "rkcat/Km (kcat/Km relative to that of dThd)", "setting": "[1]", "value": 5.0, "unit": "%"}, {"measurement": "Solubility in PBS pH 7.4", "setting": "[2]", "value": "25.4 - 26.3 |g/mL^2"}]}
{"substance": "3-[1(2)-closo-1,7-Carboranylpropyltetrazol-5-ylmethyl]thymidine [9c1/2]", "values": [{"measurement": "kcat ± SD", "setting": "[1]", "value": "0.39 ± 0.04", "unit": "S^-1"}, {"measurement": "rkcat/Km (kcat/Km relative to that of dThd)", "setting": "[1]", "value": 7.6, "unit": "%"}, {"measurement": "Solubility in PBS pH 7.4", "setting": "[2]", "value": "84.2 ± 4.1 |g/mL"}]}
{"substance": "3-[2-Imino-2-{2-(closo-1,7-carboranyl)ethylamino}ethyl]thymidine [Compound 3e]", "values": [{"measurement": "Solubility in PBS pH 7.4", "setting": "[2]", "value": ">19.5", "unit": "mg/mL"}, {"measurement": "Stability under phosphoryl transfer assay conditions (phosphorylated side products, dTMP)", "setting": "[3]", "value": "did not appear to produce significant amounts of dTMP as a side product"}]}
{"substance": "3-[2-Imino-2-{3-(closo-1,7-carboranyl)propylamino}ethyl]thymidine [Compound 3f]", "values": [{"measurement": "Solubility in PBS pH 7.4", "setting": "[2]", "value": ">15", "unit": "mg/mL"}, {"measurement": "Stability under phosphoryl transfer assay conditions (phosphorylated side products, dTMP)", "setting": "[3]", "value": "did not appear to produce significant amounts of dTMP as a side product"}]}
{"substance": "3-[5-{2-(2,3-dihydroxyprop-1-yl)-o-carboran-1-yl}pentan-1-yl]thymidine [Compound N5-2OH]", "values": [{"measurement": "kcat ± SD", "setting": "[1]", "value": "0.42 ± 0.03", "unit": "S^-1"}, {"measurement": "rkcat/Km (kcat/Km relative to that of dThd)", "setting": "[1]", "value": 10.8, "unit": "%"}, {"measurement": "Boron concentration in tumor relative to normal brain", "setting": "intracranial RG2 glioma", "value": 10, "unit": "fold"}, {"measurement": "Boron concentration in normal brain", "setting": "intracranial RG2 glioma; normal brain", "value": 2.6, "unit": "μg B/g tumor"}, {"measurement": "Boron concentration in tumor", "setting": "intracranial RG2 glioma; tumor", "value": 27.6, "unit": "μg B/g tumor"}, {"measurement": "In vitro uptake in L929 TK (+) cells relative to L929 TK (−) cells", "setting": "L929 TK (+) cells", "value": "5-10 fold"}, {"measurement": "Solubility in PBS pH 7.4", "setting": "[2]", "value": "7-10 |g/mL"}, {"measurement": "rkcat/Km", "setting": "[4]", "value": 35.8, "unit": "%"}]}
